Among the data in ChEMBL document CHEMBL5608180, “DNA G-quadruplexes in the genome of Trypanosoma cruzi as potential therapeutic targets for Chagas disease: Dithienylethene ligands as effective antiparasitic agents” (Eur J Med Chem, 2024) are selectivity ratio and IC50 values, retold here.

Data set [1] in a line: Selectivity index, ratio of IC50 for cytotoxicity against human MRC5 cells to IC50 for antiparasitic activity against epimastigote form of Trypanosoma cruzi BM Lopez (TcIa). Format: toxicity, cell-based. As to conditions: read-out: Ratio IC50.
Data set [2] in a line: Selectivity index, ratio of IC50 for cytotoxicity against human MRC5 cells to IC50 for antiparasitic activity against epimastigote form of Trypanosoma cruzi DA (TcI). The data set is classed as toxicity, cell-based. As to conditions: read-out: Ratio IC50.
In data set [3] the test system is Trypanosoma cruzi. Description: Antiparasitic activity against epimastigote form of Trypanosoma cruzi DA (TcI) assessed as inhibition of parasite growth incubated for 96 hrs followed by incubation with resazurin for 4 to 6 hrs by resazurin dye based fluorescence analysis. Format: functional, organism-based.
Data set [4] can be described thus: Selectivity index, ratio of IC50 for cytotoxicity against human MRC5 cells to IC50 for antiparasitic activity against epimastigote form of Trypanosoma cruzi SOL (TcV). The data set is classed as toxicity, cell-based. As to conditions: read-out: Ratio IC50.
Data set [5] relates to Trypanosoma cruzi. Description: Antiparasitic activity against epimastigote form of Trypanosoma cruzi BM Lopez (TcIa) assessed as inhibition of parasite growth incubated for 96 hrs followed by incubation with resazurin for 4 to 6 hrs by resazurin dye based fluorescence analysis. The data set is classed as functional, organism-based. A general note: Resazurin is reduced to fluorescent resorufin, in cell work by metabolically active cells.

For data set [6], the system named is Trypanosoma cruzi. The data set can be described thus: Antiparasitic activity against epimastigote form of Trypanosoma cruzi SOL(TcV) assessed as inhibition of parasite growth incubated for 96 hrs followed by incubation in dark with resazurin for 4 to 6 hrs by resazurin dye based fluorescence analysis. The data set is classed as functional, organism-based.
Data set [7] in a line: Cytotoxicity against human MRC5 cells. The data set is classed as toxicity, cell-based.
The subject of data set [8] is Trypanosoma cruzi. Description: Antiparasitic activity against epimastigote form of Trypanosoma cruzi Y(TcII) assessed as inhibition of parasite growth incubated for 96 hrs followed by incubation with resazurin for 4 to 6 hrs by resazurin dye based fluorescence analysis. The data set is classed as functional, organism-based.
Data set [9] is described as follows: Selectivity index, ratio of IC50 for cytotoxicity against human MRC5 cells to IC50 for antiparasitic activity against epimastigote form of Trypanosoma cruzi Y (TcII). The data set is classed as toxicity, cell-based. As to conditions: read-out: Ratio IC50.
Data set [10] deals with Trypanosoma cruzi. Description: Antiparasitic activity against trypomastigote form of Trypanosoma cruzi SOL (MHOM/ES/2008/SOL; DTU V) assessed as inhibition of parasite growth incubated for 96 hrs followed by incubation in dark with resazurin for 4 to 6 hrs by resazurin dye based fluorescence analysis. The data set is classed as functional, organism-based.
Data set [11] is described as follows: Selectivity index, ratio of IC50 for cytotoxicity against human MRC5 cells to IC50 for antiparasitic activity against trypomastigote form of Trypanosoma cruzi SOL (TcV). The data set is classed as toxicity, cell-based. As to conditions: read-out: Ratio IC50.

The structures appear in SMILES notation.

Usually IC50 stands for the point on the concentration scale where inhibition reaches its midpoint. In the case of `Cc1sc(-c2cc[n+](C)cc2)cc1C1=C(c2cc(-c3cc[n+](C)cc3)sc2C)CCC1`, the selectivity ratio in [1], in [2], in data set [4] and in data set [9] was less than 1 in each case. Also, the half-maximal inhibitory concentration (IC50) is greater than 28.2 µM in data set [3]; greater than 28.6 µM in data set [5]; greater than 27.4 µM in data set [6]; 2.4 µM in data set [7]; 23.1 µM in [8].

With `Cc1sc(-c2ccc(-c3cc[n+](C)cc3)cc2)cc1C1=C(c2cc(-c3ccc(-c4cc[n+](C)cc4)cc3)sc2C)CCC1`, the selectivity ratio in [1], in data set [2], in [4] and in [9] was less than 1 in each case. Further, the IC50 in [3] was determined as 28.4 µM; in data set [5], 25.2 µM; in data set [6] it was 37.1 µM; in data set [7], 2.2 µM; in [8], 14 µM.

Take `NCCOc1cc(C(=O)Nc2cc(OCCN)c3ccccc3n2)nc(C(=O)Nc2cc(OCCN)c3ccccc3n2)c1` [PYRIDOSTATIN]: the selectivity ratio in [1], in [2], in data set [4] and in data set [9] was less than 1 each time. For the same molecule, the 50% inhibitory concentration (IC50) in data set [3], in data set [5], in [6] and in [8] was greater than 100 µM throughout.

Turning to `Cc1sc(-c2ccc(CC[N+](C)(C)C)cc2)cc1C1=C(c2cc(-c3ccc(CC[N+](C)(C)C)cc3)sc2C)CCC1`, the selectivity ratio in data set [1], in data set [2], in data set [4] and in data set [9] was less than 1 each time. Moreover, the IC50 in [3] was 6.8 µM; in data set [5] it was 19.1 µM; in data set [6], 21.2 µM; in [7], 2.7 µM; in [8], 14.2 µM.

As to `CN(C)CCc1ccc(C2=CC3=C4CCCC4=C4C=C(c5ccc(CCN(C)C)cc5)S[C@]4(C)[C@@]3(C)S2)cc1`, the selectivity ratio in data set [1], in data set [2], in [4] and in [9] was less than 1 each time. In addition, the IC50 in data set [3] was 13.4 µM; in data set [5] it was greater than 48.4 µM; in data set [6], 45.1 µM; in data set [7], 6.1 µM; in [8], 31.1 µM.

With `C[C@]12SC(c3ccncc3)=CC1=C1CCCC1=C1C=C(c3ccncc3)S[C@@]12C`, the selectivity ratio in data set [1], in data set [2], in [4] and in data set [9] was less than 1 throughout. The IC50 is 30.2 µM in data set [3]; greater than 25.6 µM in data set [5]; greater than 18.3 µM in [6]; 3.3 µM in data set [7]; 13.9 µM in data set [8].

In the case of `Cc1sc(-c2cccc3c2ccc[n+]3C)cc1C1=C(c2cc(-c3cccc4c3ccc[n+]4C)sc2C)CCC1`, the selectivity ratio in data set [1] was less than 1; in data set [2] it was 1.4; in data set [4], 1; in [9], less than 1. Also, the IC50 came to 14.4 µM in [3]; 22.7 µM in [5]; 20.4 µM in data set [6]; 20.5 µM in data set [7]; 22.8 µM in data set [8].

Take `O=C(Cn1ccnc1[N+](=O)[O-])NCc1ccccc1` [BENZNIDAZOLE]: the selectivity ratio in [1] was 7.5; in data set [4], 4.2; in data set [11], less than 1; in [9], 2.3. The 50% inhibitory concentration (IC50) in data set [5] worked out at 6.3 µM; in [10], 57.1 µM; in [6], 11.2 µM; in data set [7], 47.2 µM; in data set [8], 20.3 µM.

For `Cc1sc(-c2ccc(CCN(C)C)cc2)cc1C1=C(c2cc(-c3ccc(CCN(C)C)cc3)sc2C)CCC1`, the selectivity ratio in [1], in data set [2], in data set [4] and in [9] was less than 1 throughout. Moreover, the IC50 in [3] was determined as 2.7 µM; in [5] it was 4 µM; in [6], 3.8 µM; in [7] it was 2.6 µM; in [8] it was 3.6 µM.

In the case of `C[C@]12SC(c3ccc(N4CCNCC4)cc3)=CC1=C1CCCC1=C1C=C(c3ccc(N4CCNCC4)cc3)S[C@@]12C`, the selectivity ratio in data set [1], in [2], in [4] and in [9] was less than 1 in each case. Besides, the IC50 in [3] was 32 µM; in data set [5] it was greater than 50 µM; in [6], greater than 50 µM; in data set [7] it was 4.3 µM; in data set [8] it was greater than 50 µM.

As to `C[C@]12SC(c3ccc(-c4ccncc4)cc3)=CC1=C1CCCC1=C1C=C(c3ccc(-c4ccncc4)cc3)S[C@@]12C`, the selectivity ratio in [1], in data set [2], in data set [4] and in data set [9] was less than 1 in each case. In addition, the IC50 in data set [3] was 36.6 µM; in data set [5], 60.1 µM; in data set [6], greater than 50 µM; in data set [7], 4.9 µM; in data set [8], 42.8 µM.

For the molecule `Cc1sc(-c2ccc(N3CCNCC3)cc2)cc1C1=C(c2cc(-c3ccc(N4CCNCC4)cc3)sc2C)CCC1`, the selectivity ratio in data set [1], in [2], in data set [4] and in [9] was less than 1 in each case. Further, the 50% inhibitory concentration (IC50) in [3] stood at 13.9 µM; in [5] it was 29.8 µM; in data set [6], 30.8 µM; in data set [7] it was 8 µM; in data set [8], 29.5 µM.

With `Cc1sc(-c2ccc(CN3CCCC3)cc2)cc1C1=C(c2cc(-c3ccc(CN4CCCC4)cc3)sc2C)CCC1`, the selectivity ratio in [1] was 1.6; in [2] it was 1.2; in data set [4], less than 1; in data set [9], 1.1. Moreover, the IC50 in [3] amounted to 6.1 µM; in data set [5] it was 4.6 µM; in [6] it was 9.75 µM; in [7], 7.2 µM; in [8], 6.6 µM.

In the case of `C[C@]12SC(c3ccc(CN4CCCC4)cc3)=CC1=C1CCCC1=C1C=C(c3ccc(CN4CCCC4)cc3)S[C@@]12C`, the selectivity ratio in data set [1], in data set [2], in [4] and in [9] was less than 1 throughout. Moreover, the IC50 in [3] is 40.1 µM; in [5], greater than 50 µM; in [6], greater than 50 µM; in [7] it was 22.5 µM; in data set [8] it was greater than 34 µM.

For `CN(C)c1ccc(Nc2c3ccc(NC(=O)CCN4CCCC4)cc3nc3cc(NC(=O)CCN4CCCC4)ccc23)cc1`, the selectivity ratio in data set [1], in data set [2], in data set [4] and in data set [9] was less than 1 each time. Also, the IC50 in data set [3] was 47.5 µM; in data set [5], 49.4 µM; in [6], greater than 100 µM; in [8] it was greater than 100 µM.
